Measured values as given in US4157399A, “Benzo(B)thiophenes” (Parcor, priority 1976, dated 1979).
Counter-ions that a name gives are not always drawn.

Legend:
Assay type in all cases: in vivo
[1] = system: aortic atheromatous lesions; test: Rabbit autopsy, mark for aortic atheromatous lesions; conditions: mark of 0 to 4; end of test (75 days); 100 mg/Kg orally
Protocol: (§1) The animals divided into several batches of 15 animals are fed with feedstuff enriched in cholesterol (1%). Batch A serves as control and is not treated, the other batches also receive the derivatives to be tested at a dose of 100 mg/Kg, administered orally, suspended in aqueous solution of gum arabic at 5%. On the first day of experimentation and then every 15 days for 75 days biological examinations are conducted on all the animals, during which the various elements causing dyslipemia are dosed; total cholesterol (T), esterified cholesterol (E), free cholesterol (L), esterification ratio (E/T), Kunkel-Phenol test (K1), Kunkelphenol test (K2), Burstein dextrane test (B) and serum lipids (LS).
(§2) At the end of the test all the animals are killed and an autopsy is carried out; a macroscopic examination is then conducted on the livers and aortas and a mark of 0 to 3 is given to the amount of fatty infiltrations of the liver and 0 to 4 to the intensity of aortic atheromatous lesions.

[2] = Propylthiouracil test, free and total cholesterol in the rat; conditions: 11th day; propylthiouracil-treated rats; oral 100 mg/Kg
Protocol: Experiments were carried out according to the propylthiouracil test (RANNEY & Coll., J. PHARMACOL. EXPER. THERAP. 1963, 142, 132-136). The propyl-thiouracil administered to adult rats has the property of making them hypercholesterolemic: the plasma level of cholesterol increases by approximately 15% under these conditions. Experiments are conducted on various batches of rats, the control batch receiving only propylthiouracil and the other treated batches also receiving the composition of the invention at an oral dose of 100 mg/Kg.
On the 11th day of experimentation blood samples are taken and the free cholesterol and total cholesterol is dosed.

[3] = system: fatty infiltrations of the liver; test: Rabbit autopsy, mark for fatty infiltrations of the liver; conditions: mark of 0 to 3; end of test (75 days); 100 mg/Kg orally
Protocol: as §1, §2

[4] = Rabbit fed cholesterol-enriched (1%) feedstuff, dosage of elements causing dyslipemia; set-up: total cholesterol (T) / esterified cholesterol (E) / Kunkelphenol test (K2) / Burstein dextrane test (B) / serum lipids (LS): unit not given here; conditions: 100 mg/Kg orally
Protocol: as §1

SMILES	aortic atheromatons lesions [1]	Free cholesterol [2]	Total cholesterol [2]	fatty infiltrations of the liver [3]	Burstein dextrane test (B) ([4]; 1st day)	Kunkel-Phenol test (K1) ([4]; 1st day)	Kunkelphenol test (K2) ([4]; 1st day)	esterification ratio (E/T) ([4]; 1st day)	esterified cholesterol (E) ([4]; 1st day)	free cholesterol (L) ([4]; 1st day)	serum lipids (LS) ([4]; 1st day)	total cholesterol (T) ([4]; 1st day)	Burstein dextrane test (B) ([4]; 30th day)	Kunkel-Phenol test (K1) ([4]; 30th day)	Kunkelphenol test (K2) ([4]; 30th day)	esterification ratio (E/T) ([4]; 30th day)	esterified cholesterol (E) ([4]; 30th day)	free cholesterol (L) ([4]; 30th day)	serum lipids (LS) ([4]; 30th day)	total cholesterol (T) ([4]; 30th day)	other results
c1ccc(CNc2c(-c3ccccc3)sc3ccccc23)cc1 [derivative n° 1, 3-benzylamino-2-phenyl-benzo(b)thiophene]	1,6	0,15 g/l	0,61 g/l	1,1	10,8	7,9	12,8	0,53	0,28	0,24	1,98	0,52	21,3	18,8	25,7	0,63	0,95	0,55	2,9	1,50	Burstein dextrane test (B) ([4]; 75th day): 36,2; Kunkel-Phenol test (K1) ([4]; 75th day): 33,3; Kunkelphenol test (K2) ([4]; 75th day): 44,2; esterification ratio (E/T) ([4]; 75th day): 0,62; esterified cholesterol (E) ([4]; 75th day): 1,84; free cholesterol (L) ([4]; 75th day): 1,12; serum lipids (LS) ([4]; 75th day): 4,18; total cholesterol (T) ([4]; 75th day): 2,96
CCCCN(C)c1c(-c2ccc(OC)cc2)sc2ccccc12 [derivative 42, 3-(N-butyl,N-methylamino)-2-(4-methoxyphenyl)-benzo(b)thiophene]	1,5	0,12 g/l	0,54 g/l	0,9	11,2	8,1	13,7	0,50	0,26	0,25	2,05	0,51	21,2	18,9	25,5	0,62	0,90	0,55	2,91	1,45	Burstein dextrane test (B) ([4]; 75th day): 35,4; Kunkel-Phenol test (K1) ([4]; 75th day): 33,2; Kunkelphenol test (K2) ([4]; 75th day): 45,0; esterification ratio (E/T) ([4]; 75th day): 0,61; esterified cholesterol (E) ([4]; 75th day): 1,85; free cholesterol (L) ([4]; 75th day): 1,09; serum lipids (LS) ([4]; 75th day): 4,05; total cholesterol (T) ([4]; 75th day): 2,94
CCN(CC)c1c(-c2ccc(Cl)cc2)sc2ccccc12 [derivative 37, Hydrochloride of 2-(4-chlorophenyl)-3-diethylamino-benzo(b)thiophene]	1,3	0,13 g/l	0,58 g/l	1,00	10,5	8,2	12,9	0,47	0,27	0,30	2,00	0,57	21,3	18,8	25,1	0,62	0,97	0,58	2,85	1,55	Burstein dextrane test (B) ([4]; 75th day): 35,7; Kunkel-Phenol test (K1) ([4]; 75th day): 32,8; Kunkelphenol test (K2) ([4]; 75th day): 46,7; esterification ratio (E/T) ([4]; 75th day): 0,61; esterified cholesterol (E) ([4]; 75th day): 1,80; free cholesterol (L) ([4]; 75th day): 1,14; serum lipids (LS) ([4]; 75th day): 4,15; total cholesterol (T) ([4]; 75th day): 2,94
CN(C)c1c(-c2ccccc2)sc2ccccc12 [derivative 29, 3-dimethylamino-2-phenyl-benzo(b)thiophene]	1,1	0,12 g/l	0,50 g/l	0,8	10,7	7,8	12,7	0,46	0,27	0,28	1,95	0,58	21,00	18,4	24,9	0,60	0,89	0,59	2,83	1,48	Burstein dextrane test (B) ([4]; 75th day): 35,1; Kunkel-Phenol test (K1) ([4]; 75th day): 32,6; Kunkelphenol test (K2) ([4]; 75th day): 41,5; esterification ratio (E/T) ([4]; 75th day): 0,60; esterified cholesterol (E) ([4]; 75th day): 1,75; free cholesterol (L) ([4]; 75th day): 1,15; serum lipids (LS) ([4]; 75th day): 3,95; total cholesterol (T) ([4]; 75th day): 2,90
c1ccc(CN2CCN(c3c(-c4ccccc4)sc4ccccc34)CC2)cc1 [derivative 24, 3-(4-benzylpiperazino)-2-phenyl-benzo(b) thiophene]	1,4	0,14 g/l	0,56 g/l	1,00	10,8	8,2	13,0	0,50	0,28	0,27	2,00	0,55	2,1	18,8	25,3	0,65	0,98	0,52	2,87	1,50	Burstein dextrane test (B) ([4]; 75th day): 35,2; Kunkel-Phenol test (K1) ([4]; 75th day): 32,9; Kunkelphenol test (K2) ([4]; 75th day): 48,2; esterification ratio (E/T) ([4]; 75th day): 0,61; esterified cholesterol (E) ([4]; 75th day): 1,80; free cholesterol (L) ([4]; 75th day): 1,11; serum lipids (LS) ([4]; 75th day): 3,98; total cholesterol (T) ([4]; 75th day): 2,91
c1ccc(CN(Cc2ccccc2)c2c(-c3ccccc3)sc3ccccc23)cc1 [derivative 19, 3-dibenzylamino-2-phenyl-benzo(b)thiophene]	1,3	0,14 g/l	0,58 g/l	1,2	10,9	8,0	13,1	0,50	0,28	0,29	1,97	0,57	2,3	18,4	25,3	0,64	0,95	0,52	2,84	1,47	Burstein dextrane test (B) ([4]; 75th day): 36,1; Kunkel-Phenol test (K1) ([4]; 75th day): 33,5; Kunkelphenol test (K2) ([4]; 75th day): 46,5; esterification ratio (E/T) ([4]; 75th day): 0,61; esterified cholesterol (E) ([4]; 75th day): 1,79; free cholesterol (L) ([4]; 75th day): 1,12; serum lipids (LS) ([4]; 75th day): 4,08; total cholesterol (T) ([4]; 75th day): 2,91
